Tests used:
[1] = biological target: Poly [ADP-ribose] polymerase 1 (Homo sapiens, UniProt P09874); assay: Inhibition of full length recombinant human N-terminal GST-tagged PARP1 expressed in Baculovirus infected Sf9 cells using TACS-Sapphire as substrate measured after 1 hr by colorimetric assay
[2] = biological target: T1, Poly [ADP-ribose] polymerase tankyrase-1 (Homo sapiens, UniProt O95271); assay: Inhibition of recombinant human N-terminal GST-tagged TNKS1 (1001 to 1327 residues) expressed in baculovirus infected sf9 cells using TACS-Sapphire as substrate measured after 30 mins by colorimetric assay
T1 sequence (O95271 whole entry): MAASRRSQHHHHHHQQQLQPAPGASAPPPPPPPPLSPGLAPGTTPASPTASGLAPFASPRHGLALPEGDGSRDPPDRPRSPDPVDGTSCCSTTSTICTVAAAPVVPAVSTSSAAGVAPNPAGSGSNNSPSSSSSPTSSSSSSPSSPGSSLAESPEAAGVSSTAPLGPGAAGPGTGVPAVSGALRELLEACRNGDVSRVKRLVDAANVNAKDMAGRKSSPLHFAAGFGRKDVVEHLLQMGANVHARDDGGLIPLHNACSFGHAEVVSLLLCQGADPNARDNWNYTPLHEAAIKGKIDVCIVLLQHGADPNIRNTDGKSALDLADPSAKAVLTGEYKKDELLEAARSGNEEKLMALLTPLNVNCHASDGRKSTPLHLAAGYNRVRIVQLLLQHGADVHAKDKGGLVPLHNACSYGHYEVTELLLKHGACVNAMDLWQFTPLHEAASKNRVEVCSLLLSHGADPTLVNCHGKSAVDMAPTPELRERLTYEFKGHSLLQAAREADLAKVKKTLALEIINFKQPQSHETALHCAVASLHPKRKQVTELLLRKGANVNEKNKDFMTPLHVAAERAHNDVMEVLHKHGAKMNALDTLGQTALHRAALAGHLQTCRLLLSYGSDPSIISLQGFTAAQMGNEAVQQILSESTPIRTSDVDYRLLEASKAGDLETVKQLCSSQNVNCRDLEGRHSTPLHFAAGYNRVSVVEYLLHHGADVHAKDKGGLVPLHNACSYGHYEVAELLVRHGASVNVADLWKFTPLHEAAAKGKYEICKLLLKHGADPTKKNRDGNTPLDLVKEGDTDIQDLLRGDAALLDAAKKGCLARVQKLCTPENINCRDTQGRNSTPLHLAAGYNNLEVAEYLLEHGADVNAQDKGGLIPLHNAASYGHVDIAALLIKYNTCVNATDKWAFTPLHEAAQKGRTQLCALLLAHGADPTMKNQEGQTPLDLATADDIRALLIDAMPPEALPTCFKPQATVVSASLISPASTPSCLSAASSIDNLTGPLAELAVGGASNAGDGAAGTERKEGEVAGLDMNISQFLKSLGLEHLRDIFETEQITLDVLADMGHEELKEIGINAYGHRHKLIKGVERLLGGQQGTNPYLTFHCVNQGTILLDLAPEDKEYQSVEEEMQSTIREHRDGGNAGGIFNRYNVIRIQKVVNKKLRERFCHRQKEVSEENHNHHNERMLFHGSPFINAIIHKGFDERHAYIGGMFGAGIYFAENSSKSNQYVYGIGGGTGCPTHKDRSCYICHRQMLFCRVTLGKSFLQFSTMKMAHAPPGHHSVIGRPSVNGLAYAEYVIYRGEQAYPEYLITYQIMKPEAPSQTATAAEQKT

[3] = biological target: Poly [ADP-ribose] polymerase 2 (Homo sapiens, UniProt Q9UGN5); assay: Inhibition of recombinant human N-terminal GST-tagged PARP2 (2 to 583 residues) expressed in baculovirus infected Sf9 cells measured after 1 hr by chemiluminescence assay
Sequence of Poly [ADP-ribose] polymerase 2 (Q9UGN5 whole entry, the tested form may be a part): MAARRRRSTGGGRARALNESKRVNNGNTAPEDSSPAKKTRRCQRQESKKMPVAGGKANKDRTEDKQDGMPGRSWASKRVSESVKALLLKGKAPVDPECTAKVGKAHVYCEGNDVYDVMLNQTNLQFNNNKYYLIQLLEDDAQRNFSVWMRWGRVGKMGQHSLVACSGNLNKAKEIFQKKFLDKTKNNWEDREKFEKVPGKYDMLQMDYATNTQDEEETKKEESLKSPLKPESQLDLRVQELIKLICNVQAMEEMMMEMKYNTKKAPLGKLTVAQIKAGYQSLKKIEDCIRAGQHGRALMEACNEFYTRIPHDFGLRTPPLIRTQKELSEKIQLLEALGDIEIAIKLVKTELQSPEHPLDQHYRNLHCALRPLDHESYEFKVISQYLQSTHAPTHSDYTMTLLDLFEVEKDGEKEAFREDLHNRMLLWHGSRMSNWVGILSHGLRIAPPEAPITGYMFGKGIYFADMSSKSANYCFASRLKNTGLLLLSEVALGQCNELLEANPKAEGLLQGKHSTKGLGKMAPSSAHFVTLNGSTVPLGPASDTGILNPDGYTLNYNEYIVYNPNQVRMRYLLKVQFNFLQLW

[4] = biological target: T2, Poly [ADP-ribose] polymerase tankyrase-2 (Homo sapiens, UniProt Q9H2K2); assay: Inhibition of recombinant human N-terminal His-GST-tagged TNKS2 (849 to 1166 residues) expressed in baculovirus infected Sf9 cells using biotinylated NAD+ as substrate measured after 2 hrs
T2 sequence (Q9H2K2 whole entry): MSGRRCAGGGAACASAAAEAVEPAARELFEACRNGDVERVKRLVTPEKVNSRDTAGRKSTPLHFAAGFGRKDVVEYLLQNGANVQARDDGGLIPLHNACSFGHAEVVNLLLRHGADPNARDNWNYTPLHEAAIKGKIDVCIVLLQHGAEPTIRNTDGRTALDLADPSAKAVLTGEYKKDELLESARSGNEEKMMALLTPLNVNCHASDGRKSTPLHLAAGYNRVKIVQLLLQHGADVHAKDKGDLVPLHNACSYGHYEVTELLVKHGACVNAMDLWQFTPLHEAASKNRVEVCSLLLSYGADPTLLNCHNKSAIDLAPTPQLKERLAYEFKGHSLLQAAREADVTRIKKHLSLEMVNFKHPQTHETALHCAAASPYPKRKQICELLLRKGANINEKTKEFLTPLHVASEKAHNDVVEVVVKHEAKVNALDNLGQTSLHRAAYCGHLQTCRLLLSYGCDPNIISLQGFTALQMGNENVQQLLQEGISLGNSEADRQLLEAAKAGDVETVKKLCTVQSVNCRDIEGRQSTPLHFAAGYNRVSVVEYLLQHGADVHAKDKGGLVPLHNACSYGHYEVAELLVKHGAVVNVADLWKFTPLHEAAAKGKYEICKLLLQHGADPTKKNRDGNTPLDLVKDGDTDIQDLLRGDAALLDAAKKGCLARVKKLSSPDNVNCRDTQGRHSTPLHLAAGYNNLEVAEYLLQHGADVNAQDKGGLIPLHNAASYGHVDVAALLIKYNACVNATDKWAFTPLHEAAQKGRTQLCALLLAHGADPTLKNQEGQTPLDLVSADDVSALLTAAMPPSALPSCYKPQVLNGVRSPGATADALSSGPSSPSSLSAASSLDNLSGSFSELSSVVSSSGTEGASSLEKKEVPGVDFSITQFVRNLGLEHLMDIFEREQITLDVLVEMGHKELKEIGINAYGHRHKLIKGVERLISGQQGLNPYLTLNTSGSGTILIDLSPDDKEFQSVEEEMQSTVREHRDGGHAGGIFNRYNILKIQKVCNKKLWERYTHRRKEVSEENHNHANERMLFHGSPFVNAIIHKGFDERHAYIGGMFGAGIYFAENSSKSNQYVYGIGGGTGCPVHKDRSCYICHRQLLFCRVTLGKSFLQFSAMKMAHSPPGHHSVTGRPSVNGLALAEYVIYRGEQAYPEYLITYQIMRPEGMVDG

Sequence of Poly [ADP-ribose] polymerase 1 (P09874 whole entry, the tested form may be a part): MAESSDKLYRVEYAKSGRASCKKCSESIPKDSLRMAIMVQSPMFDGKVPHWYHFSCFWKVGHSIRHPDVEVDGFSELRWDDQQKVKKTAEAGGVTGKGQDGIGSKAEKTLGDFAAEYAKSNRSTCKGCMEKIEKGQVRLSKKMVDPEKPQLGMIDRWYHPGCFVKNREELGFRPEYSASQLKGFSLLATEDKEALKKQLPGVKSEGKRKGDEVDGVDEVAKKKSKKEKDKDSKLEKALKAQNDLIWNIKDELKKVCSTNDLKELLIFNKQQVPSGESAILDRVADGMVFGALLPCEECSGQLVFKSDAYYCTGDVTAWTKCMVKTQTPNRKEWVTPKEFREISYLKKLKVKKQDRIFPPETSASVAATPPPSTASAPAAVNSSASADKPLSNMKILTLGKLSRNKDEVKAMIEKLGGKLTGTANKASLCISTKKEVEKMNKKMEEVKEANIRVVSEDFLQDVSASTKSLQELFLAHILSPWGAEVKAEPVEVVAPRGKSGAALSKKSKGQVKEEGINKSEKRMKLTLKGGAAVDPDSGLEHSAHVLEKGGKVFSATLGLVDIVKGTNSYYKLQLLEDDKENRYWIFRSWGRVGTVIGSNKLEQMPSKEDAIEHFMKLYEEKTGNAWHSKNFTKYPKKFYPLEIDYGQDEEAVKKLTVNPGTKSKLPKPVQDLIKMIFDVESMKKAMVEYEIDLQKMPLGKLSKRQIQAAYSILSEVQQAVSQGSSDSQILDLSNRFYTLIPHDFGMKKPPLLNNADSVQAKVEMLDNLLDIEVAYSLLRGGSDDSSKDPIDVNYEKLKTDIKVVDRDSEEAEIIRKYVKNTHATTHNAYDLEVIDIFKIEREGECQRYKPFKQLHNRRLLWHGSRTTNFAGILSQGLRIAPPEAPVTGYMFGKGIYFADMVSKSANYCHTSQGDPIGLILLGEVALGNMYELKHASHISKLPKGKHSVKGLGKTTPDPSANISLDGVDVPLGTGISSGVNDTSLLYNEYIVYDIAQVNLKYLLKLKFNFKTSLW

Row | IC50 ([1]; read-out: IC50) [µM] | IC50 [2] [µM] | IC50 [3] [µM] | IC50 [4] [µM] | IC50 ([1]; read-out: pIC50 (converted)) [µM] | Compound
1 | > 100 | 0.343 | > 100 |  |  | O=C(Nc1cccc2cccnc12)c1ccc(N2C(=O)[C@@H]3[C@@H]4CC[C@@H](C4)[C@@H]3C2=O)cc1
2 | 6.7 | > 100 | 0.125 | > 100 |  | O=C(O)CCc1nc(O)c2ccccc2n1
3 | 1 | > 100 | 0.145 | > 100 | 6.61 | Cc1cccc2c(=O)[nH]c(CCC(=O)O)nc12
4 | > 100 | > 100 |  |  |  | Nc1ccc(C(=O)Nc2cccc3cccnc23)cc1
